Experiments:
[1] = test system: Tyrosine-protein kinase ABL1 (Homo sapiens), P00519 [F317I]
[2] = test system: Tyrosine-protein kinase ABL1 (Homo sapiens), P00519 [T315I]
[3] = test system: ALK tyrosine kinase receptor (Homo sapiens), Q9UM73 [L1196M]
[4] = target: Mitogen-activated protein kinase kinase kinase 6 (Homo sapiens) (UniProt O95382)
[5] = target: Bone morphogenetic protein receptor type-2 (Homo sapiens) (UniProt Q13873)
[6] = target: Serine/threonine-protein kinase B-raf (Homo sapiens) (UniProt P15056)
[7] = test system: Serine/threonine-protein kinase B-raf (Homo sapiens), P15056 [V600E]
[8] = target: Cyclin-dependent kinase 19 (Homo sapiens) (UniProt Q9BWU1)
[9] = target: Cyclin-dependent kinase 4 (Homo sapiens) (UniProt P11802)
[10] = target: Casein kinase I isoform epsilon (Homo sapiens) (UniProt P49674)
[11] = target: Dual specificity tyrosine-phosphorylation-regulated kinase 1A (Homo sapiens) (UniProt Q13627)
[12] = target: Dual specificity tyrosine-phosphorylation-regulated kinase 1B (Homo sapiens) (UniProt Q9Y463)
[13] = test system: Epidermal growth factor receptor (Homo sapiens), P00533 [L858R,T790M]
[14] = target: Receptor tyrosine-protein kinase erbB-3 (Homo sapiens) (UniProt P21860)
[15] = target: Mitogen-activated protein kinase 6 (Homo sapiens) (UniProt Q16659)
[16] = target: Tyrosine-protein kinase Fes/Fps (Homo sapiens) (UniProt P07332)
[17] = test system: Receptor-type tyrosine-protein kinase FLT3 (Homo sapiens), P36888 [K663Q]
[18] = target: Insulin-like growth factor 1 receptor (Homo sapiens) (UniProt P08069)
[19] = target: Mitogen-activated protein kinase 9 (Homo sapiens) (UniProt P45984)
[20] = test system: Mast/stem cell growth factor receptor Kit (Homo sapiens), P10721 [D816H]
[21] = target: LIM domain kinase 2 (Homo sapiens) (UniProt P53671)
[22] = target: Serine/threonine-protein kinase STK11 (Homo sapiens) (UniProt Q15831)
[23] = target: Leukocyte tyrosine kinase receptor (Homo sapiens) (UniProt P29376)
[24] = target: Mitogen-activated protein kinase kinase kinase 11 (Homo sapiens) (UniProt Q16584)
[25] = target: Serine/threonine-protein kinase 4 (Homo sapiens) (UniProt Q13043)
[26] = target: Macrophage-stimulating protein receptor (Homo sapiens) (UniProt Q04912)
[27] = target: Serine/threonine-protein kinase 24 (Homo sapiens) (UniProt Q9Y6E0)
[28] = target: Serine/threonine-protein kinase mTOR (Homo sapiens) (UniProt P42345)
[29] = target: Serine/threonine-protein kinase Nek6 (Homo sapiens) (UniProt Q9HC98)
[30] = target: Mitogen-activated protein kinase 14 (Homo sapiens) (UniProt Q16539)
[31] = target: Platelet-derived growth factor receptor beta (Homo sapiens) (UniProt P09619)
[32] = target: 3-phosphoinositide-dependent protein kinase 1 (Homo sapiens) (UniProt O15530)
[33] = target: Phosphatidylinositol 3-kinase C2 domain-containing subunit gamma (Homo sapiens) (UniProt O75747)
[34] = target: Membrane-associated tyrosine- and threonine-specific cdc2-inhibitory kinase (Homo sapiens) (UniProt Q99640)
[35] = target: Protein kinase C iota type (Homo sapiens) (UniProt P41743)
[36] = target: cAMP-dependent protein kinase catalytic subunit PRKX (Homo sapiens) (UniProt P51817)
[37] = target: Serine/threonine-protein kinase RIO3 (Homo sapiens) (UniProt O14730)
[38] = target: Uncharacterized serine/threonine-protein kinase SBK3 (Homo sapiens) (UniProt P0C264)
[39] = target: Transient receptor potential cation channel subfamily M member 6 (Homo sapiens) (UniProt Q9BX84)
[40] = target: Testis-specific serine/threonine-protein kinase 3 (Homo sapiens) (UniProt Q96PN8)
[41] = target: Vascular endothelial growth factor receptor 2 (Homo sapiens) (UniProt P35968)
[42] = target: Serine/threonine-protein kinase WNK2 (Homo sapiens) (UniProt Q9Y3S1)
[43] = target: 5-hydroxytryptamine receptor 1D (Homo sapiens) (UniProt P28221); details: Compound concentration 10.0 uM
[44] = target: Alpha-2B adrenergic receptor (Homo sapiens) (UniProt P18089); details: Compound concentration 10.0 uM
[45] = target: Alpha-2C adrenergic receptor (Homo sapiens) (UniProt P18825); details: Compound concentration 10.0 uM
[46] = Compound concentration 1000.0 nM
[47] = Compound concentration 100.0 nM

Cyclin-dependent kinase 19 (Homo sapiens), sequence (Q9BWU1 whole entry): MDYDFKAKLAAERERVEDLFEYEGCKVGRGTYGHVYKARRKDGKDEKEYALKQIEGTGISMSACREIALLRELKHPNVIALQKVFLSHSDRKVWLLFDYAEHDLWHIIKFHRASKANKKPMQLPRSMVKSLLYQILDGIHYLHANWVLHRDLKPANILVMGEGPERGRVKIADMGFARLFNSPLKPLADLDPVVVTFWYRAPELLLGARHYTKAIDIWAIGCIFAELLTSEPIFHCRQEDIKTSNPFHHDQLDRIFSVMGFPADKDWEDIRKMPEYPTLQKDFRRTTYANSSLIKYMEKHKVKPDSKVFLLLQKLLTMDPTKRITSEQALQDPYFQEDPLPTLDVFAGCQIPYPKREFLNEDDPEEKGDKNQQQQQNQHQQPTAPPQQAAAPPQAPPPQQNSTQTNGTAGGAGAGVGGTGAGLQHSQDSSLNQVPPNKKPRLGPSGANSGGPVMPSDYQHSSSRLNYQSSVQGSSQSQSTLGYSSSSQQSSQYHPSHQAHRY
Serine/threonine-protein kinase Nek6 (Homo sapiens), sequence (Q9HC98 whole entry): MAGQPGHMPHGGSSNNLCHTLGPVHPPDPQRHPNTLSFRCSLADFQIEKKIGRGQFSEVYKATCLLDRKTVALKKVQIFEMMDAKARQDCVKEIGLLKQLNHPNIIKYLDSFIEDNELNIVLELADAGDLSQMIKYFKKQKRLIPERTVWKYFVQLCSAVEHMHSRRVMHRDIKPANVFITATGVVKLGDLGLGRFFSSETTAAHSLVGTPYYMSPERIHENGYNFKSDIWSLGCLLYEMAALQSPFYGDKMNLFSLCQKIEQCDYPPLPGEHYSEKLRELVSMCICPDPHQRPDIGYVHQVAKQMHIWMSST
Vascular endothelial growth factor receptor 2 (Homo sapiens), sequence (P35968 whole entry): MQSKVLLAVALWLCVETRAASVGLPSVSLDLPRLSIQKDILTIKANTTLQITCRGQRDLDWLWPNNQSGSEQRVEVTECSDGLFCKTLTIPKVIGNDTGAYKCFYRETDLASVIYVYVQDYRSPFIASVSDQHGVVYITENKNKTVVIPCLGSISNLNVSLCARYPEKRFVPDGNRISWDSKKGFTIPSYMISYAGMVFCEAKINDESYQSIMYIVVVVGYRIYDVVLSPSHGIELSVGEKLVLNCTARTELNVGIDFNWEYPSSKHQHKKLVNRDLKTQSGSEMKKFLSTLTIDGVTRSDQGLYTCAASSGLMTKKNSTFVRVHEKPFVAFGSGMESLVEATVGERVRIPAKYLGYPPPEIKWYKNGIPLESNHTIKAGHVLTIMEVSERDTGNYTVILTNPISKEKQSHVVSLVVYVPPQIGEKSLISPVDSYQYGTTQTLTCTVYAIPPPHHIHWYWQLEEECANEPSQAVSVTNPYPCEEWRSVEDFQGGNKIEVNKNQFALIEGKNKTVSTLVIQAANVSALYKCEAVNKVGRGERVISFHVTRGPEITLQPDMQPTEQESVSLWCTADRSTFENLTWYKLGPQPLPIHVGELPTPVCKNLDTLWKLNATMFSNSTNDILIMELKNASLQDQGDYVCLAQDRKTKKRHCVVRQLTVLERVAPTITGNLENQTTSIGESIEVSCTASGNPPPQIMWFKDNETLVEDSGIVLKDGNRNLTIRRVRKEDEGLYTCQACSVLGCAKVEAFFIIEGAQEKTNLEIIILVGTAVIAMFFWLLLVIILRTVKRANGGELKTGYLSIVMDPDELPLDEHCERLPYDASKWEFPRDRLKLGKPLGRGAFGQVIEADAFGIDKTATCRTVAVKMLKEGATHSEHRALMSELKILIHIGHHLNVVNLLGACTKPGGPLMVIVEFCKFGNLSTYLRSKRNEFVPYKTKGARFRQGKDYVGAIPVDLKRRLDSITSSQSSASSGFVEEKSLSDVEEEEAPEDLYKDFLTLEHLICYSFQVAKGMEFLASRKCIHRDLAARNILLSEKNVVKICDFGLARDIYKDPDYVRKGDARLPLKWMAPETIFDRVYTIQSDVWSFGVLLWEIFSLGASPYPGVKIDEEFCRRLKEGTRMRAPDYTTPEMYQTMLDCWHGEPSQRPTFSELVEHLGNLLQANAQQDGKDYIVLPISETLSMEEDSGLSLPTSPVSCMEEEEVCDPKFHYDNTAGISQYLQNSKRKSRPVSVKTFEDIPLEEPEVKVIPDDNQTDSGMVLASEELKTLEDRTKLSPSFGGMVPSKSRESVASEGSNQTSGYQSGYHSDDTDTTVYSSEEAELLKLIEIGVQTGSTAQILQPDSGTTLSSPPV
Transient receptor potential cation channel subfamily M member 6 (Homo sapiens), sequence (Q9BX84 whole entry): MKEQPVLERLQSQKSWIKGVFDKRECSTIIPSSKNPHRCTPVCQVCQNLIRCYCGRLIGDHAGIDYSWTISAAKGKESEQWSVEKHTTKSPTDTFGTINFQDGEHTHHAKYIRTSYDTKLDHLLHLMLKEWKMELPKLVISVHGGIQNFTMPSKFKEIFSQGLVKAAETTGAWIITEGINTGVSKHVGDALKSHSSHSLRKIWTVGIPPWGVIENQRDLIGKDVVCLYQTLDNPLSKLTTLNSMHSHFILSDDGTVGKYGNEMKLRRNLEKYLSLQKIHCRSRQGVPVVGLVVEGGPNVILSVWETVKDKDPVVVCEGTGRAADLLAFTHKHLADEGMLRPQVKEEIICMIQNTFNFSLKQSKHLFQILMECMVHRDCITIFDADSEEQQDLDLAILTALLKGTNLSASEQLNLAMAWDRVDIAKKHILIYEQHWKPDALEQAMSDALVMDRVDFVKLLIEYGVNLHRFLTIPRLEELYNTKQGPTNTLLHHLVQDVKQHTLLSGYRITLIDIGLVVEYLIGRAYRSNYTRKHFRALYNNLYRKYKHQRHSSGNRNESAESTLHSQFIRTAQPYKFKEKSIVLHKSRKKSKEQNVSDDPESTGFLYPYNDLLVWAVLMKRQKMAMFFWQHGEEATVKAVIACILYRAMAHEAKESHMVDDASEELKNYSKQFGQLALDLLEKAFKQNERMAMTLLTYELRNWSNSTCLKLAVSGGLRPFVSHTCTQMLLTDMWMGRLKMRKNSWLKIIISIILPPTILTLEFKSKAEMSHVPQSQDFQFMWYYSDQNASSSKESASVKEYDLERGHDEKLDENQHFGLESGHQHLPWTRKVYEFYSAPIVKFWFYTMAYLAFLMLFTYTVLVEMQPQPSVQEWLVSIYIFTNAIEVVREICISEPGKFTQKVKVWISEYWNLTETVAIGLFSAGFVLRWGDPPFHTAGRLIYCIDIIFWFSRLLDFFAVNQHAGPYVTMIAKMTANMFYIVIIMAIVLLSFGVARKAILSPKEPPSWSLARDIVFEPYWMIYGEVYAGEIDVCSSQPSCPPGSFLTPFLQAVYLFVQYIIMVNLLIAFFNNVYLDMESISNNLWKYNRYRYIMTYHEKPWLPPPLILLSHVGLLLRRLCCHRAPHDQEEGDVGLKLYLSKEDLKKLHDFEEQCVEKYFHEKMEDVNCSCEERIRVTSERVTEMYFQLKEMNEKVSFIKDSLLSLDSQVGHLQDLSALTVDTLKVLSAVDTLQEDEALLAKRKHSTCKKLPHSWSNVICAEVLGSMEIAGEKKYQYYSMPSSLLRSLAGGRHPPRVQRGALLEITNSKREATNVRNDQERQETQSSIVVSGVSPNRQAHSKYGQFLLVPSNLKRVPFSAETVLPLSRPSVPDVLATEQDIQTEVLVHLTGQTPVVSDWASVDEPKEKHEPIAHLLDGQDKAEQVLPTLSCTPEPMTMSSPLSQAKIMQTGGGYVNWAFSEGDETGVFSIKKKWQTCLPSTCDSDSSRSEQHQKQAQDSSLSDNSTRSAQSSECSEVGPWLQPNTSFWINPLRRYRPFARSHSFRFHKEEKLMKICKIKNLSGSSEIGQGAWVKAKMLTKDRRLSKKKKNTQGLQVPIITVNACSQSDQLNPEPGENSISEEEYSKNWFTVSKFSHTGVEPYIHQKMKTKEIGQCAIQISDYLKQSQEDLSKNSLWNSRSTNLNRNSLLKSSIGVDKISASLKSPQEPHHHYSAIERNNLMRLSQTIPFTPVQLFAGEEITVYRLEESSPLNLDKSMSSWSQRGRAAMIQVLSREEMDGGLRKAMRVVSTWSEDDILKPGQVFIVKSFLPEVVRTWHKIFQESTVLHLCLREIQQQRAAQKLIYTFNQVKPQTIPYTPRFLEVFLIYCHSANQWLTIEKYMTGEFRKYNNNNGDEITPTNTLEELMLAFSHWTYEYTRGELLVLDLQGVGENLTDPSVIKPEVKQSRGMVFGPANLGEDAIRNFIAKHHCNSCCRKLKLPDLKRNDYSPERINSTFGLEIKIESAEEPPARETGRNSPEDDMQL
Serine/threonine-protein kinase RIO3 (Homo sapiens), sequence (O14730 whole entry): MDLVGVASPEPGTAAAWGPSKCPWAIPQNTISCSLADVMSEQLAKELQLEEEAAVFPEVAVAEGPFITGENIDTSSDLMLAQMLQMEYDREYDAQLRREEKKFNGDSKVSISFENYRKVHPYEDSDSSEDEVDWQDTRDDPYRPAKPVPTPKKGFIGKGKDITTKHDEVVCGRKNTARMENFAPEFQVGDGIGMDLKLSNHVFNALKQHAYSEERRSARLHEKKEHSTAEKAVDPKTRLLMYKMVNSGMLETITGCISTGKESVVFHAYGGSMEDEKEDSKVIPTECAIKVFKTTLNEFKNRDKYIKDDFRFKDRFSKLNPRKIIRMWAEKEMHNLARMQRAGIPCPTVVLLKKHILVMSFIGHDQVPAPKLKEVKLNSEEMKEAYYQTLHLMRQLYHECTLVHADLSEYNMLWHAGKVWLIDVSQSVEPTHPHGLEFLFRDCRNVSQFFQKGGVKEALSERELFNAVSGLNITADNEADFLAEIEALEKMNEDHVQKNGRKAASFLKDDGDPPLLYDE
Mitogen-activated protein kinase 14 (Homo sapiens), sequence (Q16539 whole entry): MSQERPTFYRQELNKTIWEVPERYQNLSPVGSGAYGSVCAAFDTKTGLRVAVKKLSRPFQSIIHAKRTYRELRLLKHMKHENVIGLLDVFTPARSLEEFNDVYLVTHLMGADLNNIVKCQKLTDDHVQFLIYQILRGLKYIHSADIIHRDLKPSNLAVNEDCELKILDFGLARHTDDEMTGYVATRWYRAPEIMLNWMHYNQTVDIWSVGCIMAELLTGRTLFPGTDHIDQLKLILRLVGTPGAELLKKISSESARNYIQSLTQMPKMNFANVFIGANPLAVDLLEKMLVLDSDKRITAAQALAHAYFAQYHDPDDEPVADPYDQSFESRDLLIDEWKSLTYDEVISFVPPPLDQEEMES

How did the residual activity [1, 46] turn out when C[C@H](NC(=O)Nc1cc2[nH]ncc2c(CO)n1)c1ccccn1 [ERKi-NC] was run?
The residual activity was 100%.

What about the residual activity [2, 46] of the same compound?
Its residual activity is 100%.

What about the residual activity [3, 46] of the same compound?
Its residual activity is 100%.

And the residual activity [4, 46]?
The residual activity was 67.4%.

What about the residual activity [5, 46] of the same compound?
The residual activity was 100%.

And the residual activity [6, 46]?
The residual activity was 100%.

And the residual activity [7, 46]?
The residual activity was 100%.

What about the residual activity [8, 46] of the same compound?
Its residual activity is 71.3%.

What about the residual activity [9, 46] of the same compound?
The residual activity was 100%.

What about the residual activity [10, 46] of the same compound?
The residual activity was 96.1%.

What about the residual activity [11, 46] of the same compound?
The residual activity was 100%.

What about the residual activity [12, 46] of the same compound?
The residual activity was 57.6%.

And the residual activity [13, 46]?
The residual activity was 100%.

And the residual activity [14, 46]?
The residual activity was 60.6%.

And the residual activity [15, 46]?
Its residual activity is 100%.

What about the residual activity [16, 46] of the same compound?
Its residual activity is 100%.

What about the residual activity [17, 46] of the same compound?
The residual activity was 93.5%.

And the residual activity [18, 46]?
Its residual activity is 100%.

What about the residual activity [19, 46] of the same compound?
The residual activity was 100%.

What about the residual activity [20, 46] of the same compound?
Its residual activity is 89.4%.

And the residual activity [21, 46]?
The residual activity was 96%.

And the residual activity [22, 46]?
Its residual activity is 100%.

And the residual activity [23, 46]?
The residual activity was 100%.

And the residual activity [24, 46]?
The residual activity was 87.7%.

What about the residual activity [25, 46] of the same compound?
Its residual activity is 100%.

What about the residual activity [26, 46] of the same compound?
Its residual activity is 85.5%.

What about the residual activity [27, 46] of the same compound?
The residual activity was 98%.

What about the residual activity [28, 46] of the same compound?
The residual activity was 93.1%.

What about the residual activity [29, 46] of the same compound?
Its residual activity is 100%.

What about the residual activity [30, 46] of the same compound?
The residual activity was 100%.

And the residual activity [31, 46]?
The residual activity was 100%.

And the residual activity [32, 46]?
Its residual activity is 86.3%.

What about the residual activity [33, 46] of the same compound?
Its residual activity is 93.1%.

What about the residual activity [34, 46] of the same compound?
Its residual activity is 100%.

And the residual activity [35, 46]?
The residual activity was 85.5%.

What about the residual activity [36, 46] of the same compound?
The residual activity was 100%.

What about the residual activity [37, 46] of the same compound?
Its residual activity is 90.7%.

What about the residual activity [38, 46] of the same compound?
Its residual activity is 100%.

And the residual activity [39, 46]?
The residual activity was 92.7%.

What about the residual activity [40, 46] of the same compound?
Its residual activity is 100%.

What about the residual activity [41, 46] of the same compound?
The residual activity was 100%.

What about the residual activity [42, 46] of the same compound?
Its residual activity is 90.7%.

And the inhibition [43]?
The inhibition was 39.9%.

What about the inhibition [44] of the same compound?
Its inhibition is -0.465%.

And the inhibition [45]?
Its inhibition is 11.5%.

Which results are given for C[C@@H](NC(=O)Nc1cc2[nH]ncc2c(CO)n1)c1ccccc1 [ERKi]?
residual activity [1, 47]: 100%; residual activity [2, 47]: 100%; residual activity [3, 47]: 96.9%; residual activity [4, 47]: 99.3%; residual activity [5, 47]: 70.3%; residual activity [6, 47]: 86.9%; residual activity [7, 47]: 100%; residual activity [8, 47]: 97.2%; residual activity [9, 47]: 83.1%; residual activity [10, 47]: 95.1%; residual activity [11, 47]: 49%; residual activity [12, 47]: 95.9%; residual activity [13, 47]: 100%; residual activity [14, 47]: 99%; residual activity [15, 47]: 95.2%; residual activity [16, 47]: 100%; residual activity [17, 47]: 96.5%; residual activity [18, 47]: 97.9%; residual activity [19, 47]: 79.5%; residual activity [20, 47]: 86.9%; residual activity [21, 47]: 100%; residual activity [22, 47]: 91.2%; residual activity [23, 47]: 98.5%; residual activity [24, 47]: 100%; residual activity [25, 47]: 100%; residual activity [26, 47]: 94.4%; residual activity [27, 47]: 100%; residual activity [28, 47]: 71.8%; residual activity [29, 47]: 98.9%; residual activity [30, 47]: 100%; residual activity [31, 47]: 95.8%; residual activity [32, 47]: 100%; residual activity [33, 47]: 68.3%; residual activity [34, 47]: 99.6%; residual activity [35, 47]: 100%; residual activity [36, 47]: 46.1%; residual activity [37, 47]: 100%; residual activity [38, 47]: 100%; residual activity [39, 47]: 96.4%; residual activity [40, 47]: 91.1%; residual activity [41, 47]: 100%; residual activity [42, 47]: 100%; inhibition [43]: 1.59%; inhibition [44]: -1.5%; inhibition [45]: -8.07%
